From ChEMBL document CHEMBL1201861, “Genomics of Drug Sensitity in Cancer screening data, Wellcome Trust Sanger Institute”

Legend:
Type in all cases: functional, cell-based
[1] = test system: YT; assay: cells; settings: Homo sapiens
Description: SANGER: Inhibition of human YT cell growth in a cell viability assay.

[2] = test system: CA46; assay: cells; settings: Homo sapiens;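 note: growth inhibition of human CA46 cells, read out by a cell viability assay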
Description: SANGER: Inhibition of human CA46 cell growth in a cell viability assay.

[3] = test system: JIYOYE; assay: cells; settings: Homo sapiens
Description: SANGER: Inhibition of human JiyoyeP-2003 cell growth in a cell viability assay.

[4] = test system: PF-382; assay: cells; settings: Homo sapiens
Description: SANGER: Inhibition of human PF-382 cell growth in a cell viability assay.

[5] = test system: SW1990; assay: cells; settings: Homo sapiens
Description: SANGER: Inhibition of human SW1990 cell growth in a cell viability assay.

[6] = test system: A2780; assay: cells; settings: Homo sapiens;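 note: growth inhibition of A2780 cells, read out with a cell viability assay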
Description: SANGER: Inhibition of human A2780 cell growth in a cell viability assay.

[7] = test system: HCC 2998; assay: cells; settings: Homo sapiens;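 note: growth inhibition of human HCC2998 cells, measured with a cell viability read-out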
Description: SANGER: Inhibition of human HCC2998 cell growth in a cell viability assay.

[8] = test system: NCI-H650; assay: cells; settings: Homo sapiens;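 note: growth inhibition of NCI-H650 cells, read out by a viability assay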
Description: SANGER: Inhibition of human NCI-H650 cell growth in a cell viability assay.

[9] = test system: SW48; assay: cells; settings: Homo sapiens;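 note: growth inhibition of SW48 cells, read out with a cell viability assay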
Description: SANGER: Inhibition of human SW48 cell growth in a cell viability assay.

[10] = test system: SJRH30; assay: cells; settings: Homo sapiens;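 note: growth inhibition of human SJRH30 cells, read out with a cell viability assay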
Description: SANGER: Inhibition of human SJRH30 cell growth in a cell viability assay.

[11] = test system: LC-1F; assay: cells; settings: Homo sapiens;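 note: growth inhibition of human LC-1F cells, read out with a cell viability assay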
Description: SANGER: Inhibition of human LC-1F cell growth in a cell viability assay.

[12] = test system: UACC-893; assay: cells; settings: Homo sapiens
Description: SANGER: Inhibition of human UACC-893 cell growth in a cell viability assay.

[13] = test system: UACC-812; assay: cells; settings: Homo sapiens
Description: SANGER: Inhibition of human UACC-812 cell growth in a cell viability assay.

[14] = test system: Ca9-22; assay: cells; settings: Homo sapiens;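 note: growth inhibition of Ca9-22 cells, read out with a cell viability assay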
Description: SANGER: Inhibition of human Ca9-22 cell growth in a cell viability assay.

[15] = test system: HuO9; assay: cells; settings: Homo sapiens;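 note: growth inhibition of HuO9 cells, read out with a cell viability assay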
Description: SANGER: Inhibition of human HuO9 cell growth in a cell viability assay.

[16] = test system: DMS-273; assay: cells; settings: Homo sapiens
Description: SANGER: Inhibition of human DMS-273 cell growth in a cell viability assay.

[17] = test system: BC1 cell line; assay: SANGER: Inhibition of human BC-1 cell growth in a cell viability assay.
[18] = test system: AGS; assay: cells; settings: Homo sapiens;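 note: growth inhibition of AGS cells, determined with a cell viability assay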
Description: SANGER: Inhibition of human AGS cell growth in a cell viability assay.

[19] = test system: HSC-4; assay: cells; settings: Homo sapiens;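 note: growth inhibition of human HSC-4 cells, read out with a cell viability assay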
Description: SANGER: Inhibition of human HSC-4 cell growth in a cell viability assay.

[20] = test system: BCPAP; assay: cells; settings: Homo sapiens;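 note: growth inhibition of BCPAP cells, read out in a cell viability assay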
Description: SANGER: Inhibition of human BCPAP cell growth in a cell viability assay.

[21] = test system: A2058; assay: cells; settings: Homo sapiens;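 note: reduction of A2058 cell growth, read out with a viability assay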
Description: SANGER: Inhibition of human A2058 cell growth in a cell viability assay.

[22] = test system: MRK-nu-1; assay: cells; settings: Homo sapiens;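 note: cell viability assay measuring growth suppression of human MRK-nu-1 cells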
Description: SANGER: Inhibition of human MRK-nu-1 cell growth in a cell viability assay.

[23] = test system: NCI-H2405; assay: cells; settings: Homo sapiens;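 note: growth inhibition of the human cell line, read out with a cell viability assay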
Description: SANGER: Inhibition of human NCI-H2405 cell growth in a cell viability assay.

[24] = test system: IMR-5; assay: cells; settings: Homo sapiens;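 note: growth inhibition of human IMR-5 cells, read out with a cell viability assay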
Description: SANGER: Inhibition of human IMR-5 cell growth in a cell viability assay.

[25] = test system: HCC1569; assay: cells; settings: Homo sapiens;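 note: growth inhibition of human HCC1569 cells, read out with a cell viability assay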
Description: SANGER: Inhibition of human HCC1569 cell growth in a cell viability assay.

[26] = test system: PFSK-1; assay: cells; settings: Homo sapiens;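 note: cell viability assay measuring how strongly compounds suppress growth of human PFSK-1 cells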
Description: SANGER: Inhibition of human PFSK-1 cell growth in a cell viability assay.

[27] = test system: ESS-1; assay: cells; settings: Homo sapiens;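 note: growth inhibition of human ESS-1 cells, read out by a cell viability assay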
Description: SANGER: Inhibition of human ESS-1 cell growth in a cell viability assay.

[28] = test system: BL-41; assay: cells; settings: Homo sapiens;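 note: growth inhibition of human BL-41 cells, read out with a cell viability assay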
Description: SANGER: Inhibition of human BL-41 cell growth in a cell viability assay.

[29] = test system: ACHN; assay: cells; settings: Homo sapiens;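 note: cell viability read-out used to gauge how strongly growth of human ACHN cells is suppressed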
Description: SANGER: Inhibition of human ACHN cell growth in a cell viability assay.

[30] = test system: WM-115; assay: cells; settings: Homo sapiens
Description: SANGER: Inhibition of human WM-115 cell growth in a cell viability assay.

[31] = test system: HMV-2 cell line; assay: cells; settings: Homo sapiens;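 note: growth inhibition of HMV-II cells, read out with a cell viability assay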
Description: SANGER: Inhibition of human HMV-II cell growth in a cell viability assay.

[32] = test system: SK-MEL-30; assay: cells; settings: Homo sapiens;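 note: growth inhibition of SK-MEL-30 cells, determined with a cell viability assay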
Description: SANGER: Inhibition of human SK-MEL-30 cell growth in a cell viability assay.

[33] = test system: HCC1599; assay: cells; settings: Homo sapiens;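 note: growth inhibition of HCC1599 cells, read out in a cell viability assay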
Description: SANGER: Inhibition of human HCC1599 cell growth in a cell viability assay.

[34] = test system: NCI-H1694; assay: cells; settings: Homo sapiens;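 note: cell viability assay measuring inhibition of growth in human NCI-H1694 cells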
Description: SANGER: Inhibition of human NCI-H1694 cell growth in a cell viability assay.

[35] = test system: CAL-39; assay: cells; settings: Homo sapiens;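 note: cell viability assay measuring growth inhibition of CAL-39 cells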
Description: SANGER: Inhibition of human CAL-39 cell growth in a cell viability assay.

[36] = test system: NCI-H1436; assay: cells; settings: Homo sapiens;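 note: growth suppression of human NCI-H1436 cells, determined with a cell viability readout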
Description: SANGER: Inhibition of human NCI-H1436 cell growth in a cell viability assay.

[37] = test system: REH; assay: cells; settings: Homo sapiens;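 note: growth inhibition of REH cells determined with a cell viability read-out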
Description: SANGER: Inhibition of human REH cell growth in a cell viability assay.

[38] = test system: SCC-25; assay: cells; settings: Homo sapiens;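 note: growth inhibition of SCC-25 cells, measured with a cell viability assay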
Description: SANGER: Inhibition of human SCC-25 cell growth in a cell viability assay.

[39] = test system: NCI-H28; assay: cells; settings: Homo sapiens;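 note: growth inhibition of human NCI-H28 cells, read out as cell viability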
Description: SANGER: Inhibition of human NCI-H28 cell growth in a cell viability assay.

[40] = test system: EGI-1; assay: cells; settings: Homo sapiens;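 note: cell viability readout used to gauge growth inhibition of EGI-1 cells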
Description: SANGER: Inhibition of human EGI-1 cell growth in a cell viability assay.

[41] = test system: SiHa; assay: cells; settings: Homo sapiens;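 note: Viability-based readout of growth inhibition in SiHa cells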
Description: SANGER: Inhibition of human SiHa cell growth in a cell viability assay.

[42] = test system: 786-0; assay: cells; settings: Homo sapiens
Description: SANGER: Inhibition of human 786-0 cell growth in a cell viability assay.

[43] = test system: LB647-SCLC; assay: cells; settings: Homo sapiens;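 note: cell growth inhibition, read out by a viability assay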
Description: SANGER: Inhibition of human LB647-SCLC cell growth in a cell viability assay.

[44] = test system: DoTc2-4510; assay: cells; settings: Homo sapiens
[45] = test system: U-118-MG; assay: cells; settings: Homo sapiens
Description: SANGER: Inhibition of human U-118-MG cell growth in a cell viability assay.

[46] = test system: Raji; assay: cells; settings: Homo sapiens;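 note: cell viability assay measuring inhibition of Raji cell growth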
Description: SANGER: Inhibition of human Raji cell growth in a cell viability assay.

[47] = test system: NCI-H2171; assay: cells; settings: Homo sapiens;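 note: growth inhibition of human NCI-H2171 cells, read out by a cell viability assay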
Description: SANGER: Inhibition of human NCI-H2171 cell growth in a cell viability assay.

[48] = test system: NCI-H1703; assay: cells; settings: Homo sapiens;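 note: growth inhibition of NCI-H1703 cells, read out via a cell viability assay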
Description: SANGER: Inhibition of human NCI-H1703 cell growth in a cell viability assay.

[49] = test system: HLE; assay: cells; settings: Homo sapiens;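 note: growth inhibition of human HLE cells, read out by a cell viability assay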
Description: SANGER: Inhibition of human HLE cell growth in a cell viability assay.

[50] = test system: A-427; assay: cells; settings: Homo sapiens;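 note: growth inhibition of human A-427 cells, read out by a cell viability assay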
Description: SANGER: Inhibition of human A427 cell growth in a cell viability assay.

[51] = test system: RL; assay: cells; settings: Homo sapiens
Description: SANGER: Inhibition of human RL cell growth in a cell viability assay.

[52] = test system: Hs-578T; assay: cells; settings: Homo sapiens
Description: SANGER: Inhibition of human Hs-578-T cell growth in a cell viability assay.

[53] = test system: HSC-2; assay: cells; settings: Homo sapiens;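 note: growth inhibition of human HSC-2 cells, read out by a cell viability assay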
Description: SANGER: Inhibition of human HSC-2 cell growth in a cell viability assay.

[54] = test system: HCC38; assay: cells; settings: Homo sapiens;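 note: cell viability assay on the human HCC38 cell line, with IC50 marking the concentration that inhibits cell growth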
Description: SANGER: Inhibition of human HCC38 cell growth in a cell viability assay.

[55] = test system: NCI-H2347; assay: cells; settings: Homo sapiens;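 note: growth inhibition of the cell line, read out with a cell viability assay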
Description: SANGER: Inhibition of human NCI-H2347 cell growth in a cell viability assay.

[56] = test system: DBTRG-05MG; assay: cells; settings: Homo sapiens;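 note: cell viability assay measuring growth inhibition of human DBTRG-05MG cells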
Description: SANGER: Inhibition of human DBTRG-05MG cell growth in a cell viability assay.

[57] = test system: C-33-A; assay: cells; settings: Homo sapiens;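 note: cell viability assay measuring growth inhibition of C-33-A cells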
Description: SANGER: Inhibition of human C-33-A cell growth in a cell viability assay.

[58] = test system: NCI-H2228; assay: cells; settings: Homo sapiens;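 note: growth inhibition of human NCI-H2228 cells, read out by a cell viability assay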
Description: SANGER: Inhibition of human NCI-H2228 cell growth in a cell viability assay.

[59] = test system: BEN; assay: cells; settings: Homo sapiens;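 note: growth inhibition of the BEN cell line, read out with a cell viability assay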
Description: SANGER: Inhibition of human BEN cell growth in a cell viability assay.

[60] = test system: MC-IXC; assay: cells; settings: Homo sapiens;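 note: growth inhibition of MC-IXC cells, read out with a cell viability assay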
Description: SANGER: Inhibition of human MC-IXC cell growth in a cell viability assay.

[61] = test system: HCC2157; assay: cells; settings: Homo sapiens;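 note: growth inhibition of the cancer cell line, read out as cell viability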
Description: SANGER: Inhibition of human HCC2157 cell growth in a cell viability assay.

[62] = test system: BT-20; assay: cells; settings: Homo sapiens;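 note: cell viability assay measuring suppression of growth in human BT-20 cells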
Description: SANGER: Inhibition of human BT-20 cell growth in a cell viability assay.

[63] = test system: TE-15; assay: cells; settings: Homo sapiens;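 note: cell viability readout of growth inhibition in TE-15 cells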
Description: SANGER: Inhibition of human TE-15 cell growth in a cell viability assay.

[64] = test system: BOKU; assay: cells; settings: Homo sapiens;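 note: growth inhibition of the human BOKU cell line, read out by a cell viability assay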
Description: SANGER: Inhibition of human BOKU cell growth in a cell viability assay.

[65] = test system: NCI-H1522; assay: cells; settings: Homo sapiens
Description: SANGER: Inhibition of human NCI-H1522 cell growth in a cell viability assay.

SMILES: CC(C)=CC[C@@H](O)C1=CC(=O)c2c(O)ccc(O)c2C1=O [SHIKONIN]
- IC50 [1]: 0.384 µM
- IC50 [2]: 0.192 µM
- IC50 [3]: 1.39 µM
- IC50 [4]: 0.79 µM
- IC50 [5]: 1.62 µM
- IC50 [6]: 2.56 µM
- IC50 [7]: > 16 µM
- IC50 [8]: 0.665 µM
- IC50 [9]: 1.26 µM
- IC50 [10]: 0.369 µM
- IC50 [11]: > 16 µM
- IC50 [12]: > 16 µM
- IC50 [13]: 5.08 µM
- IC50 [14]: 0.581 µM
- IC50 [15]: 1.66 µM
- IC50 [16]: 0.396 µM
- IC50 [17]: 2.68 µM
- IC50 [18]: 0.613 µM
- IC50 [19]: 2.12 µM
- IC50 [20]: 0.923 µM
- IC50 [21]: 0.919 µM
- IC50 [22]: 0.102 µM
- IC50 [23]: 0.675 µM
- IC50 [24]: 0.589 µM
- IC50 [25]: 0.81 µM
- IC50 [26]: > 16 µM
- IC50 [27]: > 16 µM
- IC50 [28]: 0.483 µM
- IC50 [29]: 0.146 µM
- IC50 [30]: 10.6 µM
- IC50 [31]: 0.0564 µM
- IC50 [32]: 0.695 µM
- IC50 [33]: 0.388 µM
- IC50 [34]: 0.84 µM
- IC50 [35]: 0.483 µM
- IC50 [36]: 0.604 µM
- IC50 [37]: 0.147 µM
- IC50 [38]: 0.383 µM
- IC50 [39]: 1.01 µM
- IC50 [40]: 2.51 µM
- IC50 [41]: > 16 µM
- IC50 [42]: 0.344 µM
- IC50 [43]: 0.233 µM
- IC50 [44]: 0.263 µM
- IC50 [45]: 0.842 µM
- IC50 [46]: 0.631 µM
- IC50 [47]: 0.909 µM
- IC50 [48]: 2.3 µM
- IC50 [49]: 0.0883 µM
- IC50 [50]: 0.018 µM
- IC50 [51]: > 16 µM
- IC50 [52]: 6.22 µM
- IC50 [53]: 0.223 µM
- IC50 [54]: 0.787 µM
- IC50 [55]: 0.968 µM
- IC50 [56]: 0.611 µM
- IC50 [57]: 0.913 µM
- IC50 [58]: 0.901 µM
- IC50 [59]: 0.814 µM
- IC50 [60]: 0.387 µM
- IC50 [61]: 0.338 µM
- IC50 [62]: 2.56 µM
- IC50 [63]: 0.4 µM
- IC50 [64]: 1.87 µM
- IC50 [65]: 0.519 µM

SMILES: O=c1[nH]c2ccccc2n1C1CCN(Cc2ccc(-c3nc4cc5[nH]cnc5cc4nc3-c3ccccc3)cc2)CC1
- IC50 [1]: > 2.56 µM
- IC50 [2]: > 2.56 µM
- IC50 [3]: > 2.56 µM
- IC50 [4]: > 2.56 µM
- IC50 [5]: > 2.56 µM
- IC50 [6]: > 2.56 µM
- IC50 [7]: > 2.56 µM
- IC50 [8]: > 2.56 µM
- IC50 [9]: > 2.56 µM
- IC50 [10]: > 2.56 µM
- IC50 [11]: > 2.56 µM
- IC50 [12]: > 2.56 µM
- IC50 [13]: > 2.56 µM
- IC50 [14]: > 2.56 µM
- IC50 [15]: 1.55 µM
- IC50 [16]: > 2.56 µM
- IC50 [17]: > 2.56 µM
- IC50 [18]: > 2.56 µM
- IC50 [19]: > 2.56 µM
- IC50 [20]: > 2.56 µM
- IC50 [21]: > 2.56 µM
- IC50 [22]: > 2.56 µM
- IC50 [23]: > 2.56 µM
- IC50 [24]: > 2.56 µM
- IC50 [25]: > 2.56 µM
- IC50 [26]: > 2.56 µM
- IC50 [27]: > 2.56 µM
- IC50 [28]: > 2.56 µM
- IC50 [29]: > 2.56 µM
- IC50 [30]: > 2.56 µM
- IC50 [31]: > 2.56 µM
- IC50 [32]: > 2.56 µM
- IC50 [33]: > 2.56 µM
- IC50 [34]: > 2.56 µM
- IC50 [35]: > 2.56 µM
- IC50 [36]: > 2.56 µM
- IC50 [37]: > 2.56 µM
- IC50 [38]: > 2.56 µM
- IC50 [39]: > 2.56 µM
- IC50 [40]: > 2.56 µM
- IC50 [41]: > 2.56 µM
- IC50 [42]: 1.1 µM
- IC50 [43]: > 2.56 µM
- IC50 [44]: > 2.56 µM
- IC50 [45]: > 2.56 µM
- IC50 [46]: > 2.56 µM
- IC50 [47]: > 2.56 µM
- IC50 [48]: > 2.56 µM
- IC50 [49]: > 2.56 µM
- IC50 [50]: > 2.56 µM
- IC50 [51]: > 2.56 µM
- IC50 [52]: > 2.56 µM
- IC50 [53]: > 2.56 µM
- IC50 [54]: > 2.56 µM
- IC50 [55]: > 2.56 µM
- IC50 [56]: > 2.56 µM
- IC50 [57]: > 2.56 µM
- IC50 [58]: 2.29 µM
- IC50 [59]: > 2.56 µM
- IC50 [60]: 2.06 µM
- IC50 [61]: > 2.56 µM
- IC50 [62]: > 2.56 µM
- IC50 [63]: > 2.56 µM
- IC50 [64]: > 2.56 µM
- IC50 [65]: > 2.56 µM

SMILES: Fc1cc(-c2cc[nH]/c(=N/c3ccc(-n4cnc(N5CCOCC5)n4)cc3)n2)cc(N2CCOCC2)c1
- IC50 [1]: 0.204 µM
- IC50 [2]: 0.333 µM
- IC50 [3]: 0.263 µM
- IC50 [4]: 0.476 µM
- IC50 [5]: 1.1 µM
- IC50 [6]: 0.653 µM
- IC50 [7]: 2.03 µM
- IC50 [8]: 0.141 µM
- IC50 [9]: 0.742 µM
- IC50 [10]: 0.349 µM
- IC50 [11]: 2.53 µM
- IC50 [12]: 4.99 µM
- IC50 [13]: 4.42 µM
- IC50 [14]: 0.389 µM
- IC50 [15]: 0.638 µM
- IC50 [16]: 0.105 µM
- IC50 [17]: 0.491 µM
- IC50 [18]: 0.415 µM
- IC50 [19]: 4.25 µM
- IC50 [20]: 0.932 µM
- IC50 [21]: 0.5 µM
- IC50 [22]: 0.545 µM
- IC50 [23]: 1.21 µM
- IC50 [24]: 2.05 µM
- IC50 [25]: 0.412 µM
- IC50 [26]: 0.811 µM
- IC50 [27]: 0.659 µM
- IC50 [28]: 0.307 µM
- IC50 [29]: 0.886 µM
- IC50 [30]: > 5.12 µM
- IC50 [31]: 0.151 µM
- IC50 [32]: 0.588 µM
- IC50 [33]: 0.466 µM
- IC50 [34]: 1.5 µM
- IC50 [35]: 0.309 µM
- IC50 [36]: 1.18 µM
- IC50 [37]: 0.722 µM
- IC50 [38]: 0.196 µM
- IC50 [39]: 0.34 µM
- IC50 [40]: 0.686 µM
- IC50 [41]: 1.11 µM
- IC50 [42]: 0.228 µM
- IC50 [43]: > 5.12 µM
- IC50 [44]: 0.225 µM
- IC50 [45]: > 5.12 µM
- IC50 [46]: 0.495 µM
- IC50 [47]: 0.792 µM
- IC50 [48]: 0.591 µM
- IC50 [49]: 0.624 µM
- IC50 [50]: 0.286 µM
- IC50 [51]: 1.59 µM
- IC50 [52]: > 5.12 µM
- IC50 [53]: 0.223 µM
- IC50 [54]: 1.73 µM
- IC50 [55]: 1.02 µM
- IC50 [56]: 0.75 µM
- IC50 [57]: 0.253 µM
- IC50 [58]: 0.527 µM
- IC50 [59]: 0.585 µM
- IC50 [60]: 0.127 µM
- IC50 [61]: 0.494 µM
- IC50 [62]: 0.493 µM
- IC50 [63]: 0.375 µM
- IC50 [64]: 3.1 µM
- IC50 [65]: 0.889 µM
